Values of other authors in article PMC7485629 (Biochemistry, 2019).
Where two headings read alike, the source gives them in different places.

Test system: N-terminus of PD-L1
Details: crystal structure

Compound | interaction with N-terminus of PD-L1 (ref [21]) | interaction with N-terminus of PD-L1 (ref [66])
COc1nc(OCc2cccc(-c3ccccc3)c2C)ccc1CNCCNC(C)=O [BMS-202] | water-mediated interaction with the backbone carbonyl of Phe19 | 
Cc1c(COc2cc(F)c(CNC[C@@H](O)CC(=O)O)cc2F)cccc1-c1ccc2c(c1)OCCO2 [BMS-200] |  | hydrogen bond with Thr20
